In US6610282B1, “Polymeric controlled release compositions” (Rohm and Haas Company, priority 1998, dated 2003):

Test: Release of 4,5-dichloro-2-octyl-3-isothiazolone from dry marine paint film in synthetic sea water
Format: physicochemical
Settings: 14 Days in synthetic sea water; marine paint film with 5%wt active on glass slides, dried 6 days; HPLC of film extract
Description: The compositions of Example 1 were evaluated for the control of the release of biologically active molecules in a marine paint.
A blank paint, that is one that contained no biologically active molecules, was dosed with Samples 2-5. The amount of the samples added was such that the total amount of 4,5-dichloro-2-octyl-3-isothiazolone in the paint was 5%wt, based on the total weight of the dry paint film. A control paint was prepared by adding 4,5-dichloro-2-octyl-3-isothiazolone alone. Glass slides were painted with the treated paints as well as the control paint and allowed to dry in a hood for 6 days. The slides were then submerged in a tank of synthetic sea water. The slides were removed after 14 days and the paint film extracted. The extracts were analyzed by HPLC to determine the amount of 4,5-dichloro-2-octyl-3-isothiazolone remaining.

% of 4,5-Dichloro-2-n-octyl-3-isothiazolone Released: 29.0%
SMILES: CCCCCCCCn1sc(Cl)c(Cl)c1=O [Control, 4,5-dichloro-2-octyl-3-isothiazolone]
